Reference: PubChem BioAssay (NCI)
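Method: 48-hour compound exposure of cells in 96-well plates, five concentrations, linear interpolation of endpoints. The concentration for full growth arrest is given as TGI.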

How the values were obtained:
Assay in all cases: NCI tumour cell line growth inhibition, 48 h
[1] = tested on: OVCAR-5 ovarian
[2] = tested on: A498 renal
[3] = tested on: MOLT-4 leukemia
[4] = tested on: COLO 205 colon
[5] = tested on: MCF7 breast
[6] = tested on: ACHN renal
[7] = tested on: UACC-62 melanoma
[8] = tested on: U251 CNS
[9] = tested on: NCI-H522 lung
[10] = tested on: TK-10 renal
[11] = tested on: MDA-MB-435
[12] = tested on: EKVX NSCLC
[13] = tested on: NCI-H460 lung
[14] = tested on: UO-31 renal
[15] = tested on: HS 578T breast
[16] = tested on: BT-549 breast
[17] = tested on: MDA-MB-231 breast
[18] = tested on: 786-0 renal
[19] = tested on: HOP-92 NSCLC
[20] = tested on: IGROV1 ovarian
[21] = tested on: MDA-N
[22] = tested on: K-562 leukemia
[23] = tested on: DU-145 prostate
[24] = tested on: SF-268 CNS
[25] = tested on: OVCAR-8 ovarian
[26] = tested on: SN12C renal
[27] = tested on: MALME-3M melanoma
[28] = tested on: OVCAR-4 ovarian
[29] = tested on: SK-MEL-2 melanoma
[30] = tested on: LOX IMVI melanoma
[31] = tested on: OVCAR-3 ovarian
[32] = tested on: CAKI-1 renal
[33] = tested on: SF-539 CNS
[34] = tested on: HT29 colon
[35] = tested on: NCI-H226 lung
[36] = tested on: RPMI-8226 leukemia
[37] = tested on: CCRF-CEM leukemia
[38] = tested on: HCT-15 colon
[39] = tested on: SR leukemia
[40] = tested on: SK-MEL-28 melanoma
[41] = tested on: A549 NSCLC
[42] = tested on: NCI-H23 lung
[43] = tested on: HL-60(TB) leukemia
[44] = tested on: HOP-62 NSCLC
[45] = tested on: HCT-116 colon
[46] = tested on: PC-3 prostate
[47] = tested on: SW-620 colon
[48] = tested on: KM12 colon
[49] = tested on: SK-OV-3 ovarian
[50] = tested on: M14 melanoma
[51] = tested on: SF-295 CNS
[52] = tested on: NCI/ADR-RES ovarian
[53] = tested on: SNB-19 CNS
[54] = tested on: SK-MEL-5 melanoma
[55] = tested on: UACC-257 melanoma

C=CCN1C(=O)/C(=C\c2cc(C(C)(C)C)c(O)c(C(C)(C)C)c2)NC1=S
TGI [1]: > 100 µM
TGI [2]: 90.8 µM
TGI [3]: > 100 µM
TGI [4]: 32.4 µM
TGI [5]: 90.5 µM
TGI [6]: 90.2 µM
TGI [7]: 33.1 µM
TGI [8]: 32.7 µM
TGI [9]: 27.8 µM
TGI [10]: 73.9 µM
TGI [11]: 70.8 µM
TGI [12]: 65.1 µM
TGI [13]: 36.8 µM
TGI [14]: > 100 µM
TGI [15]: > 100 µM
TGI [16]: > 100 µM
TGI [17]: 34.9 µM
TGI [18]: 55.7 µM
TGI [19]: > 100 µM
TGI [20]: > 100 µM
TGI [21]: > 100 µM
TGI [22]: > 100 µM
TGI [23]: 90.3 µM
TGI [24]: > 100 µM
TGI [25]: > 100 µM
TGI [26]: > 100 µM
TGI [27]: > 100 µM
TGI [28]: > 100 µM
TGI [29]: 31.8 µM
TGI [30]: 31.6 µM
TGI [31]: 39.6 µM
TGI [32]: 83.3 µM
TGI [33]: > 100 µM
TGI [34]: 80.7 µM
TGI [35]: 74.9 µM
TGI [36]: > 100 µM
TGI [37]: 20.4 µM
TGI [38]: > 100 µM
TGI [39]: > 100 µM
TGI [40]: > 100 µM
TGI [41]: > 100 µM
TGI [42]: 94 µM
TGI [43]: 25.1 µM
TGI [44]: 51.5 µM
TGI [45]: 35.4 µM
TGI [46]: 42 µM
TGI [47]: > 100 µM
TGI [48]: 72.6 µM
TGI [49]: > 100 µM
TGI [50]: 75.4 µM
TGI [51]: 68.3 µM
TGI [52]: > 100 µM
TGI [53]: > 100 µM
TGI [54]: 30.1 µM
TGI [55]: 43.4 µM
